Source: ChEMBL document CHEMBL4507279, “Data for DCP probe BI-9627” (2021)

Columns and labels:
[1] = test system: Tyrosine-protein kinase ABL1 (Homo sapiens), P00519 [F317L]; conditions: Compound concentration 1000.0 nM
[2] = test system: ALK tyrosine kinase receptor (Homo sapiens), Q9UM73 [C1156Y]; conditions: Compound concentration 1000.0 nM
[3] = target: Mitogen-activated protein kinase kinase kinase 5 (Homo sapiens) (UniProt Q99683); conditions: Compound concentration 1000.0 nM
[4] = target: Bone morphogenetic protein receptor type-1B (Homo sapiens) (UniProt O00238); conditions: Compound concentration 1000.0 nM
[5] = target: Cytoplasmic tyrosine-protein kinase BMX (Homo sapiens) (UniProt P51813); conditions: Compound concentration 1000.0 nM
[6] = target: Mitotic checkpoint serine/threonine-protein kinase BUB1 (Homo sapiens) (UniProt O43683); conditions: Compound concentration 1000.0 nM
[7] = test system: Epidermal growth factor receptor (Homo sapiens), P00533 [UNDEFINED MUTATION]; conditions: Compound concentration 1000.0 nM
[8] = test system: Epidermal growth factor receptor (Homo sapiens), P00533 [UNDEFINED MUTATION]; conditions: Compound concentration 1000.0 nM; remark: listed apart in the source
[9] = test system: Epidermal growth factor receptor (Homo sapiens), P00533 [L858R]; conditions: Compound concentration 1000.0 nM
[10] = target: Ephrin type-A receptor 2 (Homo sapiens) (UniProt P29317); conditions: Compound concentration 1000.0 nM
[11] = target: Receptor tyrosine-protein kinase erbB-2 (Homo sapiens) (UniProt P04626); conditions: Compound concentration 1000.0 nM
[12] = target: Receptor tyrosine-protein kinase erbB-4 (Homo sapiens) (UniProt Q15303); conditions: Compound concentration 1000.0 nM
[13] = target: Mitogen-activated protein kinase 3 (Homo sapiens) (UniProt P27361); conditions: Compound concentration 1000.0 nM
[14] = target: Receptor-type tyrosine-protein kinase FLT3 (Homo sapiens) (UniProt P36888); conditions: Compound concentration 1000.0 nM
[15] = target: Rhodopsin kinase GRK7 (Homo sapiens) (UniProt Q8WTQ7); conditions: Compound concentration 1000.0 nM
[16] = target: Inhibitor of nuclear factor kappa-B kinase subunit epsilon (Homo sapiens) (UniProt Q14164); conditions: Compound concentration 1000.0 nM
[17] = target: Mitogen-activated protein kinase 10 (Homo sapiens) (UniProt P53779); conditions: Compound concentration 1000.0 nM
[18] = target: Leukocyte tyrosine kinase receptor (Homo sapiens) (UniProt P29376); conditions: Compound concentration 1000.0 nM
[19] = target: Dual specificity mitogen-activated protein kinase kinase 5 (Homo sapiens) (UniProt Q13163); conditions: Compound concentration 1000.0 nM
[20] = target: Serine/threonine-protein kinase OSR1 (Homo sapiens) (UniProt O95747); conditions: Compound concentration 1000.0 nM
[21] = target: Serine/threonine-protein kinase N1 (Homo sapiens) (UniProt Q16512); conditions: Compound concentration 1000.0 nM
[22] = target: Serine/threonine-protein kinase D3 (Homo sapiens) (UniProt O94806); conditions: Compound concentration 1000.0 nM
[23] = target: cGMP-dependent protein kinase 1 (Homo sapiens) (UniProt Q13976); conditions: Compound concentration 1000.0 nM
[24] = target: Ribosomal protein S6 kinase alpha-4 (Homo sapiens) (UniProt O75676); conditions: Compound concentration 1000.0 nM
[25] = target: Ribosomal protein S6 kinase alpha-3 (Homo sapiens) (UniProt P51812); conditions: Compound concentration 1000.0 nM
[26] = target: Serine/threonine-protein kinase SBK1 (Homo sapiens) (UniProt Q52WX2); conditions: Compound concentration 1000.0 nM
[27] = target: SRSF protein kinase 1 (Homo sapiens) (UniProt Q96SB4); conditions: Compound concentration 1000.0 nM
[28] = target: TGF-beta receptor type-1 (Homo sapiens) (UniProt P36897); conditions: Compound concentration 1000.0 nM
[29] = target: Angiopoietin-1 receptor (Homo sapiens) (UniProt Q02763); conditions: Compound concentration 1000.0 nM
[30] = target: Activated CDC42 kinase 1 (Homo sapiens) (UniProt Q07912); conditions: Compound concentration 1000.0 nM
[31] = target: High affinity nerve growth factor receptor (Homo sapiens) (UniProt P04629); conditions: Compound concentration 1000.0 nM
[32] = target: Wee1-like protein kinase (Homo sapiens) (UniProt P30291); conditions: Compound concentration 1000.0 nM
[33] = target: Serine/threonine-protein kinase WNK2 (Homo sapiens) (UniProt Q9Y3S1); conditions: Compound concentration 1000.0 nM
[34] = target: Serine/threonine-protein kinase 32B (Homo sapiens) (UniProt Q9NY57); conditions: Compound concentration 1000.0 nM
[35] = target: Serine/threonine-protein kinase 32C (Homo sapiens) (UniProt Q86UX6); conditions: Compound concentration 1000.0 nM
[36] = target: 5-hydroxytryptamine receptor 1D (Homo sapiens) (UniProt P28221); conditions: Compound concentration 10.0 uM
[37] = target: 5-hydroxytryptamine receptor 2B (Homo sapiens) (UniProt P41595); conditions: Compound concentration 10.0 uM
[38] = target: Histamine H4 receptor (Homo sapiens) (UniProt Q9H3N8); conditions: Compound concentration 10.0 uM
[39] = target: T1, Muscarinic acetylcholine receptor M1 (Homo sapiens) (UniProt P11229); conditions: Compound concentration 10.0 uM
T1 sequence (whole entry): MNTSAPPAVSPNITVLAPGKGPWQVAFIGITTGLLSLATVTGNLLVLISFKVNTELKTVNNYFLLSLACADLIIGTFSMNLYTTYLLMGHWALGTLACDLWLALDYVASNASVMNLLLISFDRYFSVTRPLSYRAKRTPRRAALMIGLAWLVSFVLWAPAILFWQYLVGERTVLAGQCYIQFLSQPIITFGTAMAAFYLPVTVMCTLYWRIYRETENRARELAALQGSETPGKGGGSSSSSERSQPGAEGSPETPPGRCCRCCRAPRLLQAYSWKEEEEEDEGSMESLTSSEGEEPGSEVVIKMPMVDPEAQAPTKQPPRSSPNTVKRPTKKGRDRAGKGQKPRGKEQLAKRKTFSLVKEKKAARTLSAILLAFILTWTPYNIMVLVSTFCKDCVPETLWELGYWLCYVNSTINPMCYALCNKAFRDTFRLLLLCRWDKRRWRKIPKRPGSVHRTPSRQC

Sequence of Histamine H4 receptor (Homo sapiens) (Q9H3N8 whole entry): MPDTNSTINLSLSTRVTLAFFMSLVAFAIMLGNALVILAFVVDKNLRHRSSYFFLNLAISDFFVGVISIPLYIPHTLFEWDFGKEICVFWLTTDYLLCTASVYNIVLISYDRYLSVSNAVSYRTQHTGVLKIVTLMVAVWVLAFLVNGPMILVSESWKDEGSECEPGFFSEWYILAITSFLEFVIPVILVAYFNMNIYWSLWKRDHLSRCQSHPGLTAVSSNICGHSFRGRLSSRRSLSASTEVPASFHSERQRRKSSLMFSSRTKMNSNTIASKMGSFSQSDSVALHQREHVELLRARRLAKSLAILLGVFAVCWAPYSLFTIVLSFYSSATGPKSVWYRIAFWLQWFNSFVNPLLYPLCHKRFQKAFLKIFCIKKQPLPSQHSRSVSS
Sequence of Serine/threonine-protein kinase N1 (Homo sapiens) (Q16512 2-942 limits assumed): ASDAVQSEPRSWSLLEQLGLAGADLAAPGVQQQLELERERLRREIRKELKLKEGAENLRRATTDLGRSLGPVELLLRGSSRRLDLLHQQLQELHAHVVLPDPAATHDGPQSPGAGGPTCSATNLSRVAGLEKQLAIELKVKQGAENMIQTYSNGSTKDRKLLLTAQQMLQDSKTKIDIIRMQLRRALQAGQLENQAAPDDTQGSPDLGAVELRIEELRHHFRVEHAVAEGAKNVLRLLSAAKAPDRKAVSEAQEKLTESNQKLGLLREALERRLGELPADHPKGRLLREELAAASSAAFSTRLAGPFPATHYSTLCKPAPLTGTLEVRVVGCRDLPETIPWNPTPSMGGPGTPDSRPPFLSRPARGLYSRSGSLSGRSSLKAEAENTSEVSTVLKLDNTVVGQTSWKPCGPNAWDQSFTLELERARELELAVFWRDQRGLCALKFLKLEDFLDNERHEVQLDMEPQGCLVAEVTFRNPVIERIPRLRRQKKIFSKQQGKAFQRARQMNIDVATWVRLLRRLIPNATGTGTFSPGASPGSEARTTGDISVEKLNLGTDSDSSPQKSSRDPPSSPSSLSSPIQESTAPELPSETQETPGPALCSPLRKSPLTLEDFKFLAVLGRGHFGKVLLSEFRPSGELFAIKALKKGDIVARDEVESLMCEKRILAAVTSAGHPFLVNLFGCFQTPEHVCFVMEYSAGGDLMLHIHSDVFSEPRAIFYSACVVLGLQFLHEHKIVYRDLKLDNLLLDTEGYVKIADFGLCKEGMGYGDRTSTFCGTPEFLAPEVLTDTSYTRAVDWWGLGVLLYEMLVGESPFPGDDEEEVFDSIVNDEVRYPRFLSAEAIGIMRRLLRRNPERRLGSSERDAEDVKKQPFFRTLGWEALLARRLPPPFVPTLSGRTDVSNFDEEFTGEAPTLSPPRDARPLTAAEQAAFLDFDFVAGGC
Sequence of Angiopoietin-1 receptor (Homo sapiens) (Q02763 whole entry): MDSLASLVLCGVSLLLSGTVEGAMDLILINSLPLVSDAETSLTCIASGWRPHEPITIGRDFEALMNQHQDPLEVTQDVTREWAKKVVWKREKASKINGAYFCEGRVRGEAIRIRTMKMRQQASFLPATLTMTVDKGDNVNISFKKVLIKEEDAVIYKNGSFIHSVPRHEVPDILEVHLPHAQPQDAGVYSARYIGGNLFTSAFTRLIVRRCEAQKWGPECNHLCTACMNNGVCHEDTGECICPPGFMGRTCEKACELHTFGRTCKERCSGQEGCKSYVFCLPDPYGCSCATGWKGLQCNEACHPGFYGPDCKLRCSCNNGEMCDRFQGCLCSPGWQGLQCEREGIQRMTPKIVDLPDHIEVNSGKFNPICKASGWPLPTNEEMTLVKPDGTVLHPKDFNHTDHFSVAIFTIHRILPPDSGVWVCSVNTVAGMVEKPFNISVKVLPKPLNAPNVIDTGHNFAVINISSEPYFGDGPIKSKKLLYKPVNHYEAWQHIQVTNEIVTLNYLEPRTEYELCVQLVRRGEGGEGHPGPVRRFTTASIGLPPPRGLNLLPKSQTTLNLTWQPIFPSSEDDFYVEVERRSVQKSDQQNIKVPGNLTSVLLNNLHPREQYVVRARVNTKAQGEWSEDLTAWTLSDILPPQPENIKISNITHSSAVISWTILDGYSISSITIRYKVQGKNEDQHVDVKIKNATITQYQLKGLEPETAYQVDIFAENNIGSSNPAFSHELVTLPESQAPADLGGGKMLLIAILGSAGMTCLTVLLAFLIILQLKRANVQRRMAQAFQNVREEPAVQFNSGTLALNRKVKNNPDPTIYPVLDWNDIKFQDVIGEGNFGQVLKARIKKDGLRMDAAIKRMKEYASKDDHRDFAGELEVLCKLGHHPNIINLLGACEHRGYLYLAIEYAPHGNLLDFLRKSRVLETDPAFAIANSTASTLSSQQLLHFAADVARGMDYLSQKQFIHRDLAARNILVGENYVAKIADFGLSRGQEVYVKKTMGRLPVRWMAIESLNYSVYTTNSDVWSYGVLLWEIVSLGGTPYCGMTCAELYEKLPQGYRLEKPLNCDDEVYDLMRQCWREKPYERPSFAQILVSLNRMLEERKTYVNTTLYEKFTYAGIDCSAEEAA
Sequence of cGMP-dependent protein kinase 1 (Homo sapiens) (Q13976 whole entry): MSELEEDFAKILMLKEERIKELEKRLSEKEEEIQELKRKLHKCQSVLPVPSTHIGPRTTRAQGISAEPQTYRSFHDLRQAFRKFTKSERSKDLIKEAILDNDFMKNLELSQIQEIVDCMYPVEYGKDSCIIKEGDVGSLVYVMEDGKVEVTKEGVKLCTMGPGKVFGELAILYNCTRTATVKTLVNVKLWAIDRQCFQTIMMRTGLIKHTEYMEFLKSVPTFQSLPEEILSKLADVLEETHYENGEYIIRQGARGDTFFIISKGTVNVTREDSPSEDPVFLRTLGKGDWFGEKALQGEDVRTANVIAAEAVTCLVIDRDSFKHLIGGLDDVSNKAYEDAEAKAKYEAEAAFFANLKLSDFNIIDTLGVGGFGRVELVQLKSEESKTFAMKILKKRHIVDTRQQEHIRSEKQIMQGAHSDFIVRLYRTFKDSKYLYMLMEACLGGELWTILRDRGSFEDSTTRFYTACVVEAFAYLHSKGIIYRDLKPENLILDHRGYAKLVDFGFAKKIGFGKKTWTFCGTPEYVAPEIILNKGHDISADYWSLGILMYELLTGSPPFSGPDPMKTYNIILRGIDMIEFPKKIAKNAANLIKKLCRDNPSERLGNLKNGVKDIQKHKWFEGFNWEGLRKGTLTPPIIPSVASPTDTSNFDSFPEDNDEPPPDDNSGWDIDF
Sequence of 5-hydroxytryptamine receptor 1D (Homo sapiens) (P28221 whole entry): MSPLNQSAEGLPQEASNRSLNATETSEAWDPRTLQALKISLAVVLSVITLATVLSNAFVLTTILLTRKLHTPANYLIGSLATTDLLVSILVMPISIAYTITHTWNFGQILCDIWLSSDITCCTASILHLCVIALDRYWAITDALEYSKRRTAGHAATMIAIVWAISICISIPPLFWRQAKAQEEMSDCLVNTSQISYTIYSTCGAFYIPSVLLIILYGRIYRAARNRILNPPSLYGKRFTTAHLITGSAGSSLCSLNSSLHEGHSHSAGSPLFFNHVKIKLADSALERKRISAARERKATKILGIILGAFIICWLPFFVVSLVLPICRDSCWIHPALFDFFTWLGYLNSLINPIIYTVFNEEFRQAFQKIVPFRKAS
Sequence of Mitotic checkpoint serine/threonine-protein kinase BUB1 (Homo sapiens) (O43683 whole entry, looked up): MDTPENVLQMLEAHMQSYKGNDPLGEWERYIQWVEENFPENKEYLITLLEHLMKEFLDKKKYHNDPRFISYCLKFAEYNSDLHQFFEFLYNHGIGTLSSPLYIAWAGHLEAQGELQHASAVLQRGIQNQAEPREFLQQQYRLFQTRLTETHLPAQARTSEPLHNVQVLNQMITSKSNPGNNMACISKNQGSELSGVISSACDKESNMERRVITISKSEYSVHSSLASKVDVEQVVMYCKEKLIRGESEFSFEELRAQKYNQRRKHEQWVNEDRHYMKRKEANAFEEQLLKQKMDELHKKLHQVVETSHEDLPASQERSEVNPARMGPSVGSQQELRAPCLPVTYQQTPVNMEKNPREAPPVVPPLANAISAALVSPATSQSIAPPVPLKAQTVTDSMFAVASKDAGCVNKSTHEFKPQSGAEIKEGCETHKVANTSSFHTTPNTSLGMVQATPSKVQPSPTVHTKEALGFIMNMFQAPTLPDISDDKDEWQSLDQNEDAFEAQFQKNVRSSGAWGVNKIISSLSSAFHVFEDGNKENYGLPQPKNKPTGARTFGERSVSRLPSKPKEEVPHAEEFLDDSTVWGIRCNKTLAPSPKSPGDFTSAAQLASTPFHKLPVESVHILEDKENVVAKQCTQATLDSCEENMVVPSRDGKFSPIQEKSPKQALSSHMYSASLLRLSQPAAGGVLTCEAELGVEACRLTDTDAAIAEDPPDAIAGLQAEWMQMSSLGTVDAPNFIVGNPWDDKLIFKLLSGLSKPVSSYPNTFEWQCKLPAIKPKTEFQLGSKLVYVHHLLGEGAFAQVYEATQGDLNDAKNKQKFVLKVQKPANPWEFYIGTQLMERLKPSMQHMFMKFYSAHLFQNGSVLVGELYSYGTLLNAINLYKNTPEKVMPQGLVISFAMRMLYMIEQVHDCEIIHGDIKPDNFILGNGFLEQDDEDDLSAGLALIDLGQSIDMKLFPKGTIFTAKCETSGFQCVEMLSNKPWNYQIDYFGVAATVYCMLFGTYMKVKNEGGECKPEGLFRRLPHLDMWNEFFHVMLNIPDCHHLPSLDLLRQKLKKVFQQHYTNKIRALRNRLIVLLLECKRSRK
Sequence of Mitogen-activated protein kinase 10 (Homo sapiens) (P53779 whole entry): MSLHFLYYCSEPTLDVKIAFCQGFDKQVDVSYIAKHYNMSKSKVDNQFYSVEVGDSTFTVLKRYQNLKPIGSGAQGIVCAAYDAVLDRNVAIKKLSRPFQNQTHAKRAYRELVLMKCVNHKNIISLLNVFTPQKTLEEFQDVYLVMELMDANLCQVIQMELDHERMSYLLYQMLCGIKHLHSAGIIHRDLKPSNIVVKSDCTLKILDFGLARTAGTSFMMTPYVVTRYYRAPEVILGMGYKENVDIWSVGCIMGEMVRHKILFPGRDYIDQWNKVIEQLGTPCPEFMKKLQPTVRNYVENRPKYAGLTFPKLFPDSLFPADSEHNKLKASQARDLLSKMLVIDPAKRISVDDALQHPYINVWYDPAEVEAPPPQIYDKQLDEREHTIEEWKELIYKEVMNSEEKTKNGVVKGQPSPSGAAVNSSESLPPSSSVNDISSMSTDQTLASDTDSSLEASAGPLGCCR

CC(=O)N1CCC(c2ccc(C(=O)NC3=NCCN3)cc2C(F)(F)F)CC1 [BI 0054]
inactive: residual activity [1] 95% | residual activity [2] 100% | residual activity [3] 100% | residual activity [4] 89% | residual activity [5] 100% | residual activity [6] 100% | residual activity [7] 100% | residual activity [8] 100% | residual activity [9] 100% | residual activity [10] 94% | residual activity [11] 100% | residual activity [12] 100% | residual activity [13] 100% | residual activity [14] 100% | residual activity [15] 87% | residual activity [16] 71% | residual activity [17] 100% | residual activity [18] 100% | residual activity [19] 92% | residual activity [20] 100% | residual activity [21] 100% | residual activity [22] 100% | residual activity [23] 100% | residual activity [24] 100% | residual activity [25] 100% | residual activity [26] 97% | residual activity [27] 100% | residual activity [28] 100% | residual activity [29] 100% | residual activity [30] 100% | residual activity [31] 100% | residual activity [32] 100% | residual activity [33] 100% | residual activity [34] 100% | residual activity [35] 100% | inhibition [36] 9.64% | inhibition [37] -2.75% | inhibition [38] 9.81% | inhibition [39] -7.86%

CC(=O)N1CCC(c2ccc(C(=O)NC(=N)N)cc2C(F)(F)F)CC1 [BI 9627]
inactive: residual activity [1] 92% | residual activity [2] 100% | residual activity [3] 100% | residual activity [4] 100% | residual activity [5] 100% | residual activity [6] 85% | residual activity [7] 93% | residual activity [8] 100% | residual activity [9] 100% | residual activity [10] 100% | residual activity [11] 92% | residual activity [12] 100% | residual activity [13] 100% | residual activity [14] 100% | residual activity [15] 97% | residual activity [16] 70% | residual activity [17] 100% | residual activity [18] 100% | residual activity [19] 86% | residual activity [20] 100% | residual activity [21] 87% | residual activity [22] 80% | residual activity [23] 100% | residual activity [24] 100% | residual activity [25] 95% | residual activity [26] 100% | residual activity [27] 86% | residual activity [28] 100% | residual activity [29] 96% | residual activity [30] 100% | residual activity [31] 100% | residual activity [32] 100% | residual activity [33] 98% | residual activity [34] 89% | residual activity [35] 100% | inhibition [36] 34% | inhibition [37] -8.79% | inhibition [38] 7.11% | inhibition [39] 12.4%
